The source of these data is patent US7879795B2, “Enhancement of tigecycline potency using efflux pump inhibitors” (Mpex Pharmaceuticals, Inc., priority 2004, dated 2011).

The nature of series [1]: In vitro stability in rat serum and tissue homogenates (LC/MS/MS). The series is classed as in vitro ADME. How it is done:
To test the stability of the compounds in vitro, samples were prepared and analyzed by LC/MS/MS according to the following procedure.
Homogenization: A chunk of fresh tissue was weighed and mixed with saline at 1:1 ratio (w/v) in a 12×75 mm polypropylene round bottom tube. The mixture was homogenized with a Polytron homogenizer (on ice, 3×10 seconds with 10 second intervals at the setting of 7).
Incubation and TCA-precipitation: An appropriate amount of a tissue homogenate was pre-warmed at 37° C. for 2 minutes in an Eppendorf tube. The compound to be tested was added to the tube to a final concentration of 2 μg/ml, mixed, and a 60 μl aliquot was immediately taken (as 0 hour sample) and mixed with 120 μl of 4% TCA (trichloroacetic acid) in an Eppendorf tube. The temperature of the tube containing the rest of the tissue sample was returned to 37° C. for incubation. Later, samples were taken as scheduled and mixed with TCA as described above. Plasma and lavage samples were directly incubated with the compounds without addition of saline and homogenization.
LC/MS/MS sample vial preparation: TCA-precipitated sample tubes were vortexed for 30 seconds, centrifuged in a microfuge at top speed (13.2 k rpm) for 5 minutes. The supernatant was collected. The pH was neutralized to about 3.5 with ammonium acetate buffer. The sample (45 μl) was transferred to a glass LC/MS/MS vial (Kimble, 11 mm, 1.5 ml) and 5 μl of an internal standard was added to a final concentration of 500 ng/ml. LC/MS/MS analysis was performed in Chemistry Department of San Diego State University.
LC/MS/MS protocol: Thermo-Finnigan TSQ Quantum triple sector mass spectrometer with electrospray (ESI) ionization was used to analyze the samples. The operation conditions were: Mobile phase of pH 3.00 water/formic acid: acetonitrile-methanol (45%:5%:50% by volume); Thermo-Keystone Betabasic C-18 column (2.1 mm×50 mm) operated at 0.100 mL/min.
Many proteases responsible for degrading EPI compounds are located in […]. Lysozymes typically have an acidic pH (about 4.8-5), whereas the pH in tissue homogenates that were prepared was higher (kidney, pH 6.8; liver, pH 6.6; and lung, pH 7.5). To test the effect of tissue homogenates closer to physiological conditions, the pH was lowered to about 6 by adding acetic acid to the tissue homogenates and compound stability was tested. FIG. 2 depicts the stability of compounds 1 and 3 at different pH. […] The pH-dependent degradation of compound 3 was especially evident in kidney homogenates.
FIG. 4 is a bar graph depicting the stability of compound 3 in the supernatant and pellet of kidney tissue homogenates.

Series [2] in a line: Stability in human kidney tissue preparations. The series is classed as in vitro ADME. Conditions: in words. From the text:
The pattern of in vitro stability of compound 3 (stable in serum but unstable in tissues) observed in rodents was also reproduced using human kidney tissues or serum. FIG. 7 compares the in vitro stability of compounds 1 and 3 in human kidney tissue preparations.
FIG. 8 depicts formation of the metabolite, compound 67, in human kidney tissue. Concomitant with the disappearance of compound 3, generation of the expected metabolite of the presumed intralysosomal degradation, compound 67, was detected using human kidney.

Series [3] is described as follows: Tissue levels in rat six-hour after 8.4 mg/kg IV bolus. Conditions: in words. In kind it is in vivo. As for the experimental part:
Tissue levels of compounds 1, 2, 3 and 4 were evaluated in kidney, liver and lung six-hour after 8.4 mg/kg IV bolus administration. FIG. 13 depicts the levels as a function of time.
Compound 67, which is the expected metabolite of proteolytic intracellular degradation of compound 3, was detected in rat tissues after IV infusion, confirming the tissue-specific degradation of compound 3 (Tables 9A, B).

Series [4] relates to P. aeruginosa, PAM1723, overexpressing the MexAB-OprM efflux pump. The experiment in a line: Levofloxacin potentiation checkerboard assay (broth microdilution). The series is classed as cell-based. Conditions: for in vitro levofloxacin potentiating activity: in words. How it is done:
Stock solution was stored at −80° C.
The checkerboard assay was performed in microtiter plates. […] EPIs were diluted in the y axis, each row containing an equal concentration of an EPI. The result of these manipulations was that each well of the microtiter plate contains a unique combination of concentrations of the two agents. The assay was performed in MHB with a final bacterial inoculum of 5×10^5 CFU/ml (from an early-log phase culture). Microtiter plates were incubated during 20 h at 35° C. and were read using a microtiterplate reader (Molecular Devices) at 650 nm as well as visual observation using a microtiter plate-reading mirror.
A general note: Dilution methods test growth across graded concentrations, often in twofold steps.

Series [5] in a line: Serum levels of compound 3 after administration of acylated forms in rats. Conditions: compound 5 8.4 mg/kg injected, compound 43 10 mg/kg two-hour infusion. In kind it is in vivo, rat. How it is done:
Rats were injected with compound 5 (8.4 mg/kg) and serum levels of the parent compound 3 were evaluated after extraction. The serum levels as a function of time are depicted in FIG. 16.
Rats were infused for two hours with compound 43 at 10 mg/kg and serum levels of the parent compound 3 were evaluated after extraction. FIG. 17 depicts the serum levels of compound 3 as a function of time.

Series [6] can be described thus: Acute toxicity, minimal lethal dose after IV bolus in mice. In kind it is in vivo, mouse. Conditions: IV bolus into tail vein, lethal for at least one of three mice. How it is done: Acute toxicity was measured as minimal lethal dose (MLD). MLD is defined as a minimal concentration of a compound that has lethal effect for at least one mouse from the group of three mice after IV bolus injection into the mouse tail vein.

For series [7], the system named is strain 29A2 of P. aeruginosa overexpressing MexAB-OprM efflux pump. As to the kind of experiment: Neutropenic mice lung model of PA infection. In kind it is in vivo. Conditions: levofloxacin 30 mg/kg SQ plus EPI IP. As for the experimental part: Neutropenia was induced by cyclophosphamide 100 mg/kg IP on days 3 and 1 prior to infection. The strain 29A2 of P. aeruginosa overexpressing MexAB-OprM efflux pump was grown overnight in Mueller-Hinton Broth (MHB). The next day overnight culture was diluted in fresh MHB and was allowed to re-grow to ˜10^8 CFU/mL (OD600˜0.3). The culture was spun down, washed twice with phosphate buffered saline (PBS) and re-suspended in PBS to ˜4×10^7 CFU/mL. 50 μl of inoculum was used for intratracheal instillation of mice, which were anesthetized with sevoflourane/oxygen. […] Four mice from each treatment group were euthanized at various times after the start of treatment. The lungs were removed aseptically, homogenized in saline, and immediately plated to determine bacterial load (CFU/ml) in infected lungs. P. aeruginosa is plotted as a function of time in FIG. 20.

Another series concerns PAM1723. Conditions: summary of Table 4; in words. How it is done:
Stability in rat and human serum was also evaluated using a bioassay. 320 μg/ml of the test compound was treated with 50% serum for 4 hours.
Bioassays as described in Example 62 and Example 65 were used to evaluate the stability of various compounds in serum and rabbit kidney homogenates.

In series [8] the test system is P. aeruginosa strain PAM1723 overexpressing MexAB-OprM efflux pump. As to the kind of experiment: Neutropenic mice thigh model of PA infection. In kind it is in vivo. Conditions: levofloxacin 30 mg/kg SQ, EPI 60 mg/kg IP, 2 hours post-infection. How it is done:
Efficacy of the EPIs was evaluated in a Neutropenic Mice Thigh Model of P. aeruginosa Infection. Neutropenia was induced by cyclophosphamide 100 mg/kg IP on days 3 and 1 prior to infection. P. aeruginosa strain PAM1723 overexpressing MexAB-OprM efflux pump was grown overnight in Mueller-Hinton Broth (MHB). The next day, the overnight culture was diluted in fresh MHB and was allowed to re-grow to ˜10^8 CFU/mL (OD600˜0.3). The culture was spun down, washed twice with phosphate buffered saline (PBS) and re-suspend in PBS to ˜4×10^6 CFU/mL. Next, this culture was mixed 1:1 with 14% hog-gastric mucin in PBS to give a final inoculum of 2×10^6 CFU/mL. Infection was initiated with injection of 0.1 mL of inoculum (˜2×10^5 CFU/thigh) directly into both thighs of each mouse. Two mice from each treatment group were euthanized at various times after the start of treatment. The thighs were removed aseptically, homogenized in saline, and immediately plated to determine bacterial load (CFU/ml). Treatment was initiated 2 hours post infection.

For series [9] the following is noted: in vivo; cited from earlier work.

With `NC(CCc1ccccc1)C(=O)Nc1cnc2ccccc2c1` (stereo in doubt) [Compound 67, 2-(S)-Amino-4-phenyl-N-quinolin-3-yl-butyramide], the “level of degradation product 67 formed from compound 3” value in series [1] (rat kidney homogenates, as a function of time) was “increased”. For the same compound, the “generation of metabolite 67 from compound 3 in human kidney” value in [2] is “detected”. In addition, the “detection of metabolite 67 in rat tissues after IV administration of compound 3” value in series [3] was “detected”.

`NCCC[C@@H](N)C(=O)N[C@@H](CCc1ccccc1)C(=O)Nc1cnc2ccccc2c1` [Compound 4, 2-(R),5-Diamino-pentanoic acid [3-phenyl-1-(S)-(quinolin-3-ylcarbamoyl)-propyl]-amide]: the “Antibiotic (levofloxacin) MIC in the presence of EPI” value stood at 2 µg/mL in series [4] (EPI 0 μg/ml (levofloxacin alone)); 2 µg/mL in [4] (EPI 1.25 μg/ml); 2 µg/mL in [4] (EPI 5 μg/ml); 0.5 µg/mL in series [4] (EPI 10 μg/ml); 0.06 µg/mL in series [4] (EPI 20 μg/ml); 0.06 µg/mL in series [4] (EPI 40 μg/ml). The “Antibiotic (levofloxacin) MIC in the presence of EPI” value in [4] (EPI 80 μg/ml) amounted to 0.03 µg/mL; in [4] (EPI […]), 2 µg/mL. For the same compound, the MPC8 in [4] (EPI concentration necessary to increase susceptibility to levofloxacin eight-fold) came to 20 µg/mL. The “stability in supernatant of rat kidney tissue homogenates” value in series [1] (in words) is “neither compound 1 nor compound 4 show any instability”. For the same compound, the “tissue levels at 6 hours after IV injection” value in [3] (rat kidney, liver and lung, 8.4 mg/kg IV bolus) is “relatively high levels”.

On to `NCCC[C@H](NC(=O)C[C@H](N)C(=O)O)C(=O)N[C@H](CCc1ccccc1)C(=O)Nc1cnc2ccccc2c1` [Compound 5, 2-(S)-Amino-N-{4-amino-1-(S)-[3-phenyl-1-(R)-(quinolin-3-ylcarbamoyl)-propylcarbamoyl]-butyl}-succinamic acid], for which, in [4], the “in vitro levofloxacin potentiating activity” value is recorded as “devoid of levofloxacin potentiating activity”. Further, the “metabolism in serum to produce compound 3” value in series [5] was “readily metabolized”. The “MLD (minimal lethal dose)” value in [6] is listed as 75 mg/kg. The “bacterial load in infected lungs, EPI with levofloxacin” value in [7] is given as “efficacious”.

As to `N[C@@H](CC(=O)O)C(=O)NCCC[C@H](N)C(=O)N[C@H](CCc1ccccc1)C(=O)Nc1cnc2ccccc2c1` [Compound 34, 3-(S)-Amino-N-{4-(S)-amino-4-[3-phenyl-1-(R)-(quinolin-3-ylcarbamoyl)-propylcarbamoyl]-butyl}-succinamic acid], the “stability in rat serum” value in the series with PAM1723 is “unstable in rat serum”. In addition, the “MLD (minimal lethal dose)” value in [6] was 50 mg/kg.

Turning to `N[C@@H](CC(=O)O)C(=O)NCCC[C@H](NC(=O)[C@@H](N)CC(=O)O)C(=O)N[C@H](CCc1ccccc1)C(=O)Nc1cnc2ccccc2c1` [Compound 43, 3-Amino-(S)—N-{4-(S)-(2-(3)-(S)-amino-3-carboxy-propionylamino)-4-[3-phenyl-1-(R)-(quinolin-3-ylcarbamoyl)-propylcarbamoyl]-butyl}-succinamic acid], the “in vitro levofloxacin potentiating activity” value in series [4] is “did not have in vitro levofloxacin potentiating activity”. Also, the “metabolism in serum to produce compound 3” value in [5] was “readily metabolized”. Further, the “MLD (minimal lethal dose)” value in series [6] is on record as 150 mg/kg. Also, the “bacterial load in thighs, EPI with levofloxacin versus levofloxacin alone” value in [8] was “potentiated levofloxacin in vivo”.

`N=C(N)c1ccc(OCCCCCOc2ccc(C(=N)N)cc2)cc1` [pentamidine]: the “incidence of kidney toxicity” value in series [9] is listed as “above 75%”.
